Measured values from patent US11040108B2, “Amino acid- and peptide-steroid conjugates and use thereof” (BRANDEIS UNIVERSITY, priority 2016, dated 2021).
Read-outs that look alike come from different tables or passages of the source.

Experiments:
HeLa cells = assay: MTT assay, cytotoxicity against HeLa; assay type: cell-based, human
Method: (§1) HeLa, Saos-2, HS-5, HepG2, T98G, and A2780 cells were purchased from American-type Culture Collection (ATCC, USA). A2780cis cell was purchased from Sigma. HeLa cells, HepG-2 cells, and T98G cells were cultured in MEM Medium supplemented with 10% v/v fetal bovine serum, 100 U/mL penicillin, and 100 μg/mL streptomycin. Saos-2 cells were cultured in McCoy's 5a Medium (for Saos-2) supplemented with 15% v/v fetal bovine serum, 100 U/mL penicillin, and 100 μg/mL streptomycin. HS-5 cells were cultured in Dulbecco's Modified Eagle's medium (DMEM) supplemented with 10% v fetal bovine serum (FBS), 100 U/mL penicillin, and 100 μg/mL streptomycin. A2780cis cells were cultured in RPMI 1640 Medium supplemented with 10% v/v fetal bovine serum, 100 U/mL penicillin, and 100 μg/mL streptomycin (cisplatin only necessary every 2-3 passages). All cells were maintained at 37° C. in a humidified atmosphere of 5% CO2.
An MTT assay was used to test the cytotoxicity. All different cell lines were seeded in 96-well plates at 1×10^5 cells/well for 24 hours followed by removal of the culture medium and subsequent addition of culture medium containing different concentrations of the precursors. At designated time (24/48/72 hours), 10 μL MTT solution (5 mg/mL) was added to each well and incubated at 37° C. for another 4 hours, and then 100 μL of SDS-HCl solution was added to stop the reduction reaction and dissolve the purple formazan. The absorbance of each well at 595 nm was measured by a multimode microplate reader. The cytotoxicity assay was performed three times and the average value of the three measurements was taken.
To confirm that assemblies of the cholesterol conjugate are able to inhibit other cancer cell lines, 1a was incubated with HeLa cells, a widely studied malignant cervical cancer cell line.

T98G glioblastoma cells = assay: MTT assay, cell viability of T98G; assay type: cell-based; details: Homo sapiens, read-out: IC50 against T98G
Method: as §1
An MTT assay was used to test the cytotoxicity. All different cell lines were seeded in 96-well plates at 1×10^5 cells/well for 24 hours followed by removal of the culture medium and subsequent addition of culture medium containing different concentrations of the precursors. […] The absorbance of each well at 595 nm was measured by a multimode microplate reader. […]

[1] = tested on: lipid rafts in A2780cis cells; assay: Laurdan staining of lipid rafts, A2780cis; assay type: cell-based, human; details: 1a 12.5 μM, 12 hours, 10 μM laurdan
From the text: Considering that cholesterol is the basic component of lipid rafts, dynamic assemblies in cell membrane (Simons et al., “Functional Rafts in Cell Membranes,” Nature 387:569 (1997), which is hereby incorporated by reference in its entirety), laurdan, a commonly used probe for the polarity membrane (Parasassi et al., “Quantitation of Lipid Phases in Phospholipid Vesicles by the Generalized Polarization of Laurdan Fluorescence,” Biophys. J. 60:179 (1991), which is hereby incorporated by reference in its entirety), was used to examine the changes of lipid rafts upon the EISA of […]. Without treatment of 1a, the fluorescence of laurdan dispersed relatively evenly in the whole cell membrane (FIG. 8C).

lipid rafts in HeLa cell = assay: Laurdan staining of lipid rafts, HeLa; assay type: cell-based, human; details: 1a 25 μM, 12 hours
F-actin in HeLa cells = assay: Actin staining (CLSM), HeLa; assay type: cell-based, human; details: 1a 25 μM, 12 hours
Method: Cells in exponential growth phase were seeded in confocal dish (3.5 cm) at 1×10^5 to 2×10^5 cells per dish. After putting the dish in incubator for 24 hours, culture medium was removed, and fresh medium containing precursor (12.5 μM 1a for A2780cis, 25 μM 1a for HeLa) was added. After 12 hours, the medium was removed and PBS was used to wash the cells for three times. After fixing by 4% paraformaldehyde for 15 minutes, 1 mL of 0.1% Triton X-100 in PBS buffer was added for 30 minutes. After washing the cells three times by PBS, 1 mL of 0.1% BSA in PBS was added for 30 minutes, and then the cells were washed by PBS for three times. 1 mL of PBS containing 5 unit of Alexa 633 was added to the cells for 1 hour. After removing the buffer and washing the cells three times by PBS, 1 mL of Hoechst (1 μg/mL) was added for 10 minutes. Then, the cells were washed three times with PBS buffer before imaging.
Similar to the case of A2780cis, the change of the viability of the HeLa cells co-incubated with 1a and several specific inhibitors was examined to understand the mechanism of cell death. […] To verify the assemblies of 1b interact with F-actin, actin tracker was used to visualize F-actin filament in HeLa cells.

[2] = tested on: Src, Akt, p-SAPK/JNK in A2780cis cell lines; assay: Expression of Src, Akt and p-SAPK/JNK (CLSM, Western blot); assay type: cell-based, human
Method: Further exploration of the mode of action of 1a against A2780cis and HeLa cells was carried out via Western blot for the following ER stress markers: CHOP, Bip, PDI, IRE1α, Calnexin, Erol-Lα, PERK, and β-actin; or p-SAPK/JNK. Western blot was carried out via gel electrophoresis at […] for 1.5 hrs, and then transferring the protein on the gel to PVDF membranes for overnight at […] (4° C.). After that, the membrane was incubated with primary antibodies (obtained from Cell Signaling Technology) overnight at 4° C. The membrane was then incubated with secondary antibodies for 1 h at room temperature. This was followed by the reaction with ECL solutions for 10 minutes, and analysis of the results by autoradiography. Generation of ROS was detected in CLSM images via DHE emissions in exposed cells. CLSM imaging was carried out at the excitation of 543 nm and DHE emission was detected at the wavelength at 575 nm to 625 nm; or detection of anti-phospho-SRC and anti-phospho-Akt.
In addition, 1a causes down regulation of cell survival proteins, Akt (Alexander, “Inhibiting the Akt Pathway in Cancer Treatment,” Pharmacy & Therapeutics 36(4): 225-227 (2011), which is hereby incorporated by reference in its entirety) and Src (Irby et al., “Role of Src Expression and Activation in Human Cancer,” Oncogene 19(49):5636-5642 (2000), which is hereby incorporated by reference in its entirety). […]

In the case of CC(C)CCC[C@@H](C)C1CC[C@H]2[C@@H]3CC=C4CC(OC(=O)NC(Cc5ccc(OP(=O)(O)O)cc5)C(=O)O)CC[C@]4(C)[C@H]3CC[C@]12C (stereo partly drawn) [1a, Cholesterol-(phospho)D-Tyr], the “viability of HeLa cell treated by 1a with phosphatase or cell death signaling inhibitors” value (HeLa cells; 1a 12.5 μM + ALP, L-Phe, levamisole, zVAD-fmk, PJ34 or Nec-1, 48 hours) is reported as “significantly increased the viability”, the IC50 (HeLa cells; 48 hours, read-out: IC50 against HeLa cell) is reported as 19 µM and the IC50 (HeLa cells; Homo sapiens, HeLa, 48 h, read-out: IC50 against HeLa cell) is reported as 18.6 µM. The IC50 (HeLa cells; Homo sapiens, HeLa, 72 h, read-out: IC50 against HeLa) was 16 µM, the “viability of HeLa cells” value (HeLa cells; treated by 1a, 24 hours) was “most HeLa cells were viable” and the IC50 (T98G glioblastoma cells; 48 hours) was 48 µM. For the same compound, the IC50 (T98G glioblastoma cells; 72 hours) was 37 µM, the “laurdan fluorescence in cell membrane (lipid rafts)” value [1] was “increased inhomogeneity of the fluorescence” and the “number of green fluorescent puncta in cell membrane (laurdan, lipid rafts)” value (lipid rafts in HeLa cell) was “increased considerably”. The F-actin filaments (F-actin in HeLa cells) was “considerably decreased actin filaments”, the “expression of Src and Akt” value ([2]; 1a 12.5 μM, 24 hours) was “downregulates” and the p-SAPK/JNK expression levels ([2]; 24 hour treatment, Western blot) was “enhanced”.
